Laboratory results reported in patent publication US20240300980A1, “HETEROCYCLIC COMPOUNDS AS KRAS INHIBITOR, AND PREPARATION THEREFOR AND USE THEREOF IN TREATMENT” (SHANGHAI KECHOW PHARMA, INC., priority 2021, published 2024).

Tested on: AGS cells (KRAS^G12D)
Test: Detection of cell proliferation in vitro by MTT/MTS method (cell activity experiment)
Assay type: cell-based
Conditions: AGS cells; MTT/MTS; 3 days of drug treatment; read-out: AGS IC50
Summary of the method: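 After 3-day compound exposure (final DMSO 0.5%), viability of AGS (KRAS G12D) cells, plated 1000/well one day before dosing, was measured at 490 nm following 4 h MTT or MTS incubation. IC50 was fitted from dose–effect curves relative to DMSO-treated wells.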

`Oc1cc(-c2ccc3c(N4C[C@H]5CC[C@@H](C4)[C@@H]5F)nc(OC[C@@]45CCCN4C[C@H](F)C5)nc3c2F)c2c(F)c(F)ccc2c1` [Example 126, 5,6-difluoro-4-(8-fluoro-4-((1R,5S,8R)-8-fluoro-3-azabicyclo [3.2.1]octan-3-yl)-2-(((2R,7aS)-2-fluorotetrahydro-1H-pyrrolizin-7a(5H)-yl)methoxy)quinazolin-7-yl)naphthalen-2-ol] and `CCC1CCCc2cc(O)cc(-c3ccc4c(N5C[C@H]6CC[C@@H](C5)N6)nc(OC[C@@]56CCCN5C[C@H](F)C6)nc4c3F)c21` (single isomer, unassigned) [Example 290] cannot be ordered by IC50: greater than 2500 nM for the first, 3410 nM for the second.

Same assay, conditions: Homo sapiens, AGS, 72 h, AGS cells; MTT/MTS; 3 days of drug treatment; read-out: AGS IC50

Going from `C#Cc1cc2c(N3C[C@H]4CC[C@@H](C3)N4)nc(OC[C@@]34CCCN3C[C@H](F)C4)nc2c(F)c1-c1cc(O)cc2c1C(CC)C1CC21` (stereo partly drawn) [Example 372, 5-(4-((1R,5S)-3,8-diazabicyclo[3.2.1]octan-3-yl)-6-ethynyl-8-fluoro-2-(((2R,7aS)-2-fluorotetrahydro-1H-pyrrolizin-7a(5H)-yl)methoxy)quinazolin-7-yl)-6-ethyl-1,1a,6,6a-tetrahydrocyclopropa[a]inden-3-ol] to `COC1CCc2cc(O)cc(-c3ncc4c(N5C[C@H]6CC[C@@H](C5)N6)nc(OC[C@@]56CCCN5C[C@H](F)C6)nc4c3F)c21` (stereo partly drawn) [Example 269, 7-(4-((1R,5S)-3,8-diazabicyclo[3.2.1]octan-3-yl)-8-fluoro-2-(((2R,7aS)-2-fluorotetrahydro-1H-pyrrolizin-7a(5H)-yl)methoxy)pyrido[4,3-d]pyrimidin-7-yl)-1-methoxy-2,3-dihydro-1H-inden-5-ol], the IC50 falls from 65 nM to 30 nM (2.2-fold). The second is the more potent here.

`O=C(CO)N1CCC(c2nc(OC[C@@]34CCCN3C[C@H](F)C4)nc3c(F)c(-c4cc(O)cc5ccc(F)c(F)c45)ncc23)C1` (stereo partly drawn) [Example 85, 1-(3-(7-(7,8-difluoro-3-hydroxynaphthalen-1-yl)-8-fluoro-2-(((2R,7aS)-2-fluorotetrahydro-1H-pyrrolizin-7a(5H)-yl)methoxy)pyrido[4,3-d]pyrimidin-4-yl)pyrrolidin-1-yl)-2-hydroxyethan-1-one] and `Oc1cc(-c2ncc3c(N4C[C@H]5CC[C@@H](C4)C5(F)F)nc(OC[C@@]45CCCN4C[C@H](F)C5)nc3c2F)c2c(F)c(F)ccc2c1` [Example 33, 4-(4-((1R,5S)-8,8-difluoro-3-azabicyclo [3.2.1]octan-3-yl)-8-fluoro-2-(((2R,7aS)-2-fluorotetrahydro-1H-pyrrolizin-7a(5H)-yl)methoxy)pyrido[4,3-d]pyrimidin-7-yl)-5,6-difluoronaphthalen-2-ol] cannot be ordered by IC50: greater than 1000 nM for the first, greater than 2500 nM for the second.

Going from `CCc1csc2cc(O)cc(-c3ncc4c(N5C[C@H]6CC[C@@H](C5)N6)nc(OC[C@@]56CCCN5C[C@H](F)C6)nc4c3F)c12` [Example 348, 4-(4-((1R,5S)-3,8-diazabicyclo[3.2.1]octan-3-yl)-8-fluoro-2-(((2R,7aS)-2-fluorotetrahydro-1H-pyrrolizin-7a(5H)-yl)methoxy)pyrido[4,3-d]pyrimidin-7-yl)-3-ethylbenzo[b]thiophen-6-ol] to `Oc1cc2c(c(-c3ncc4c(N5C[C@H]6CC[C@@H](C5)N6)nc(OC[C@@]56CCCN5C[C@H](F)C6)nc4c3F)c1)C(CF)CCC2` (stereo partly drawn) [Example 262, 4-(4-((1R,5S)-3,8-diazabicyclo[3.2.1]octan-3-yl)-8-fluoro-2-(((2R,7aS)-2-fluorotetrahydro-1H-pyrrolizin-7a(5H)-yl)methoxy)pyrido[4,3-d]pyrimidin-7-yl)-5-(fluoromethyl)-5,6,7,8-tetrahydronaphthalen-2-ol], the IC50 rises from 85 nM to 305 nM (3.6-fold). The first is the more potent here.

First: C#Cc1cccc2cc(O)cc(-c3ncc4c(N5CC6CCCNC6C5)nc(OC[C@@]56CCCN5C[C@H](F)C6)nc4c3F)c12 (stereo partly drawn) [Example 53, 5-ethynyl-4-(8-fluoro-2-(((2R,7aS)-2-fluorotetrahydro-1H-pyrrolizin-7a(5H)-yl)methoxy)-4-(octahydro-6H-pyrrolo[3,4-b]pyridin-6-yl)pyrido[4,3-d]pyrimidin-7-yl)naphthalen-2-ol]
Second: CCc1cccc2cc(O)cc(-c3ncc4c(N5C[C@H]6CC[C@@H](C5)S6)nc(OC[C@@]56CCCN5C[C@H](F)C6)nc4c3F)c12 [Example 25, 4-(4-((1R,5S)-8-thia-3-azabicyclo[3.2.1]octan-3-yl)-8-fluoro-2-(((2R, 7aS)-2-fluorotetrahydro-1H-pyrrolizin-7a(5H)-yl)methoxy)pyrido[4,3-d]pyrimidin-7-yl)-5-ethylnaphthalen-2-ol]
The IC50 of the first is higher: greater than 2500 nM for the first, 290 nM for the second. The second is the more potent here.

Compared with `CCc1cccc2cc(O)cc(-c3ncc4c(N5C[C@H]6CC[C@@H](C5)N6)nc(OCC5(CN6CCCC6)CC5)nc4c3F)c12` [Example 4, 4-(4-((1R,5S)-3,8-diazabicyclo[3.2.1]octan-3-yl)-8-fluoro-2-((1-(pyrrolidin-1-ylmethyl)cyclopropyl)methoxy)pyrido[4,3-d]pyrimidin-7-yl)-5-ethylnaphthalen-2-ol], `Oc1cc(Cl)c(C2CC2)c(-c2ncc3c(N4C[C@H]5CC[C@@H](C4)N5)nc(OCC4(CN5CCCC5)CC4)nc3c2F)c1` [Example 10, 3-(4-((1R,5S)-3,8-diazabicyclo[3.2.1]octan-3-yl)-8-fluoro-2-((1-(pyrrolidin-1-ylmethyl)cyclopropyl)methoxy)pyrido[4,3-d]pyrimidin-7-yl)-5-chloro-4-cyclopropylphenol] is 1.5-fold higher in IC50: 11 nM for the first, 17 nM for the second. The first is the more potent here.

Compared with `Oc1cc(-c2ccc3c(N4C[C@H]5CC[C@@H](C4)N5)nc(OC[C@@]45CCCN4C[C@H](F)C5)nc3c2F)c2c(c1)C1CC1C2` (stereo partly drawn) [Example 294, 5-(4-((1R,5S)-3,8-diazabicyclo[3.2.1]octan-3-yl)-8-fluoro-2-(((2R,7aS)-2-fluorotetrahydro-1H-pyrrolizin-7a(5H)-yl)methoxy)quinazolin-7-yl)-1,1a,6,6a-tetrahydrocyclopropa[a]inden-3-ol], `Oc1cc2c(c(-c3ccc4c(N5C[C@H]6CC[C@@H](C5)N6)nc(OC[C@@]56CCCN5C[C@H](F)C6)nc4c3F)c1)C=CC2` [Example 306, 4-(4-((1R,5S)-3,8-diazabicyclo[3.2.1]octan-3-yl)-8-fluoro-2-(((2R,7aS)-2-fluorotetrahydro-1H-pyrrolizin-7a(5H)-yl)methoxy)quinazolin-7-yl)-1H-inden-6-ol] is 5.6-fold higher in IC50: 65 nM for the first, 366 nM for the second. The first is the more potent here.

Going from `C#Cc1c(F)ccc2cc(O)cc(-c3ccc4c(N5C[C@H]6CC[C@@H](C5)N6)nc(OC[C@@]56CCCN5C[C@H](F)C6)nc4n3)c12` [Example 140, 4-(4-((1R,5S)-3,8-diazabicyclo[3.2.1]octan-3-yl)-2-(((2R, 7aS)-2-fluorotetrahydro-1H-pyrrolizin-7a(5H)-yl)methoxy)pyrido[2,3-d]pyrimidin-7-yl)-5-ethynyl-6-fluoronaphthalen-2-ol] to `C#Cc1c(F)ccc2cc(O)cc(-c3ncc4c(N5C[C@H]6CC[C@@H](C5)N6)nc(OC[C@@]56CCCN5C[C@H](F)C6)nc4c3OC3CC3)c12` [Example 334, 4-(4-((1R,5S)-3,8-diazabicyclo[3.2.1]octan-3-yl)-8-cyclopropoxy-2-(((2R,7aS)-2-fluorotetrahydro-1H-pyrrolizin-7a(5H)-yl)methoxy)pyrido[4,3-d]pyrimidin-7-yl)-5-ethynyl-6-fluoronaphthalen-2-ol], the IC50 falls from greater than 2500 nM to 125 nM. The second is the more potent here.

Going from `C#Cc1c(F)ccc2cc(O)cc(-c3ccc4c(NCC5(N(C)C)CCC5)nc(OC[C@@]56CCCN5C[C@H](F)C6)nc4c3F)c12` [Example 430, 4-(4-(((1-(dimethylamino)cyclobutyl)methyl)amino)-8-fluoro-2-(((2R,7aS)-2-fluorotetrahydro-1H-pyrrolizin-7a(5H)-yl)methoxy)quinazolin-7-yl)-5-ethynyl-6-fluoronaphthalen-2-ol] to `C#Cc1c(F)ccc2cc(O)cc(-c3ncc4c(N5CCC(NC)C5)nc(OC[C@@]56CCCN5C[C@H](F)C6)nc4c3F)c12` (stereo partly drawn) [Example 58, 5-ethynyl-6-fluoro-4-(8-fluoro-2-(((2R,7aS)-2-fluorotetrahydro-1H-pyrrolizin-7a(5H)-yl)methoxy)-4-(3-(methylamino)pyrrolidin-1-yl)pyrido[4,3-d]pyrimidin-7-yl)naphthalen-2-ol], the IC50 rises from 35 nM to greater than 2500 nM.

First: N#Cc1c(OC[C@@]23CCCN2C[C@H](F)C3)nc2cc(-c3cc(O)cc4ccc(F)c(F)c34)ccc2c1N1C[C@H]2CC[C@@H](C1)N2 [Example 175, 4-((1R,5S)-3,8-diazabicyclo[3.2.1]octan-3-yl)-7-(7,8-difluoro-3-hydroxynaphthalen-1-yl)-2-(((2R,7aS)-2-fluorotetrahydro-1H-pyrrolizin-7a(5H)-yl)methoxy)quinoline-3-carbonitrile]
Second: C#Cc1c(F)ccc2cc(O)cc(-c3ncc4c(N5C[C@H]6CC[C@@H](C5)C6(F)F)nc(OC[C@@]56CCCN5C[C@H](F)C6)nc4c3F)c12 [Example 30, 4-(4-((1R,5S)-8,8-difluoro-3-azabicyclo[3.2.1]octan-3-yl)-8-fluoro-2-(((2R,7aS)-2-fluorotetrahydro-1H-pyrrolizin-7a(5H)-yl)methoxy)pyrido[4,3-d]pyrimidin-7-yl)-5-ethynyl-6-fluoronaphthalen-2-ol]
The IC50 of the first is lower: 1330 nM for the first, greater than 2500 nM for the second. The first is the more potent here.

Compared with `CC1OCCc2cc(O)cc(-c3c4c(c5c(N6C[C@H]7CC[C@@H](C6)N7)nc(OC[C@@]67CCCN6C[C@H](F)C7)nc5c3F)OCO4)c21` (stereo partly drawn) [Example 392, 8-(9-((1R,5S)-3,8-diazabicyclo[3.2.1]octan-3-yl)-5-fluoro-7-(((2R,7aS)-2-fluorotetrahydro-1H-pyrrolizin-7a(5H)-yl)methoxy)-[1,3]dioxolo[4,5-f]quinazolin-4-yl)-1-methylisochroman-6-ol], `C#Cc1c(F)ccc2cc(O)cc(-c3ncc4c(N5C[C@H]6CC[C@@H](C5)N6)nc(OCC56CC5CCN6C)nc4c3F)c12` (stereo partly drawn) [Example 77, 4-(4-((1R,5S)-3,8-diazabicyclo[3.2.1]octan-3-yl)-8-fluoro-2-((2-methyl-2-azabicyclo[3.1.0]hexan-1-yl)methoxy)pyrido [4,3-d]pyrimidin-7-yl)-5-ethynyl-6-fluoronaphthalen-2-ol] is higher in IC50: 110 nM for the first, greater than 2500 nM for the second.
